Our source for the Ki values is patent publication US20110002855A1 (NEUROGEN CORPORATION, priority 2007, published 2011).

The target of the assay is T1, chimeric human H3 receptor (Homo sapiens, UniProt Q9Y5N1).
T1 construct: made in house; host or cells: Sf9 insect cells (baculovirus); P2 membrane preparation
Put plainly: Chimeric human H3 receptor GTP binding assay (Example 7). In kind it is biochemical. To be noted: agonist (1 μM histamine)-stimulated GTP-gamma35S binding, P2 membranes of Sf9 cells; Ki from IC50 by Cheng-Prusoff. The text has this:
This Example illustrates a representative assay for evaluating agonist-stimulated GTP-gamma^35S binding (“GTP binding”) activity. […] This agonist-stimulated GTP binding activity can also be used to detect partial agonism mediated by antagonist compounds. A compound analyzed in this assay is referred to herein as a “test compound.”
Four independent baculoviral stocks (one directing the expression of the chimeric human H3 receptor and three directing the expression of each of the three subunits of a heterotrimeric G-protein) are used to infect a culture of Sf9 cells as described above. P2 membranes are prepared as described above, and agonist-stimulated GTP binding on the P2 membranes is assessed using histamine (Sigma Chemical Co., St. Louis, Mo.) as agonist in order to ascertain that the receptor/G-protein-alpha-beta-gamma combination(s) yield a functional response as measured by GTP binding. P2 membranes are resuspended by Dounce homogenization (tight pestle) in GTP binding assay buffer (50 mM Tris pH 7.4, 120 mM NaCl, 5 mM MgCl2, 2 mM EGTA, 1 mg/ml BSA, 0.2 mg/ml bacitracin, 0.02 mg/ml aprotinin, 0.01 mg/ml saponin, 10 μM GDP) and added to assay tubes at a concentration of 35 μg protein/reaction tube. After adding increasing doses of histamine at concentrations ranging from 10^−12 M to 10^−5 M, reactions are initiated by the addition of 125 pM GTP-gamma^35S (PERKIN ELMER; Boston, Mass.) with a final assay volume of 0.20 ml. In competition experiments, non-radiolabeled test compounds are added to separate reactions at concentrations ranging from 10^−10 M to 10^−6M along with 1 μM histamine to yield a final volume of 0.20 ml.
Neutral antagonists are antagonists that are substantially free of inherent agonist activity, and include those test compounds that reduce the histamine-stimulated GTP binding activity towards, but not below, baseline levels. In contrast, in the absence of added histamine, inverse agonists reduce the GTP binding activity of the receptor-containing membranes below baseline.
After a 60-min incubation at room temperature, reactions are terminated by vacuum filtration over WHATMAN GF/C filters (pre-soaked in wash buffer, 0.1% BSA) followed by washing with ice-cold wash buffer (50 mM Tris pH 7.4, 120 mM NaCl). The amount of receptor-bound (and thereby membrane-bound) GTE-gamma^35S is determined by measuring the filter-bound radioactivity, preferably by liquid scintillation spectrometry of the washed filters. Non-specific binding is determined in parallel assays including 10 μM unlabeled GTP-gammaS and typically represents less than 5 percent of total binding. Data is expressed as percent above basal (baseline). The results of GTP binding experiments are analyzed using SIGMAPLOT software (SPSS Inc., Chicago, Ill.). IC50 values are calculated by non-linear regression analysis of dose-response curves using Kaleidograph (Synergy Software, Reading, Pa.).
Alternatively the data is analyzed as follows. First, the average bound radioactivity from negative control wells (no agonist) is subtracted from the bound radioactivity detected for each of the other experimental wells. Second, average bound radioactivity is calculated for the positive control wells (agonist wells). Then, percent inhibition for each compound tested is calculated using the equation:
Calculated IC50 values are converted to Ki values by the Cheng-Prusoff correction (Cheng and Prusoff (1973) Biochem. Pharmacol. 22(23):3099-3108). Accordingly, the following equation: Ki=IC50/(1+[L]/EC50) is used, where [L] is the histamine concentration in the GTP binding assay, and EC50 is the concentration of histamine producing a 50% response, as determined by a dose-response analysis using concentrations of histamine ranging from 10^−10 M to 10^−6M. […]
For orientation: GTPγS resists hydrolysis and so accumulates on activated G proteins.

T1 sequence (Q9Y5N1 with tags, fused parts or gaps): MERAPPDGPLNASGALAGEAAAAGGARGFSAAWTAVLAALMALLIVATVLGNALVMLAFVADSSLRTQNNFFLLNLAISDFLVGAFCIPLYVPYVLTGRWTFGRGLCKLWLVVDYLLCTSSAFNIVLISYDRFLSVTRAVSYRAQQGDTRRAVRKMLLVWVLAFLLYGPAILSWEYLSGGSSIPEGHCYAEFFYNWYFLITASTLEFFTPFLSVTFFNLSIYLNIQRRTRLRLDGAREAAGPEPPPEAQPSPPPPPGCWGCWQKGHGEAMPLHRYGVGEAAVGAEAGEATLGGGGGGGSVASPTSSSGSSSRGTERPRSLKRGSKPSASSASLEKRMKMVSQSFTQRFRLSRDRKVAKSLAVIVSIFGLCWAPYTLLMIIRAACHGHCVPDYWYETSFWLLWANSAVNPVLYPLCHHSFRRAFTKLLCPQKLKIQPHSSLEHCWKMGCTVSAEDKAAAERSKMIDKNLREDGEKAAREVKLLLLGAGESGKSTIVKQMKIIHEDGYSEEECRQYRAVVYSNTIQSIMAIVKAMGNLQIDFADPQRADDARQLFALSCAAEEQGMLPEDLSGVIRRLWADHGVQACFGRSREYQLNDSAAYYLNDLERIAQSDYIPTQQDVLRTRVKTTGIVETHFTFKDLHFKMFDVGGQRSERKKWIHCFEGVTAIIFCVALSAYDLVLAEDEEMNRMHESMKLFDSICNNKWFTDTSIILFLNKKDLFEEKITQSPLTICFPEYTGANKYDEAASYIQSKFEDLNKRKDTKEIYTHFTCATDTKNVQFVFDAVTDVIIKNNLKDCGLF

As to `COc1ccc2[nH]c3c(c2c1)CCN(CC(=O)N1CCN(C2CCC2)CC1)C3` [Compound 18, 2-[2-(4-Cyclobutylpiperazin-1-yl)-2-oxoethyl]-6-methoxy-2,3,4,9-tetrahydro-1H-beta-carboline], the inhibitory constant (Ki) is < 1000 nM. In the case of `COc1ccc2c(c1)c1c(n2C)CN(CC(=O)N2CCN(C3CCC3)CC2)CC1` [Compound 19, 2-[2-(4-Cyclobutylpiperazin-1-yl)-2-oxoethyl]-6-methoxy-9-methyl-2,3,4,9-tetrahydro-1H-beta-carboline] it was < 1000 nM; in that of `Cc1ccc2[nH]c3c(c2c1)CCN(CC(=O)N1CCN(C2CCC2)CC1)C3` [Compound 20, 2-[2-(4-Cyclobutylpiperazin-1-yl)-2-oxoethyl]-6-methyl-2,3,4,9-tetrahydro-1H-beta-carboline], < 1000 nM. Turning to `O=C(CN1CCc2c([nH]c3ccc(F)cc23)C1)N1CCN(C2CCC2)CC1` [Compound 21, 2-[2-(4-Cyclobutylpiperazin-1-yl)-2-oxoethyl]-6-fluoro-2,3,4,9-tetrahydro-1H-beta-carboline], the inhibition constant (Ki) is < 1000 nM. In the case of `O=C(CN1CCc2c([nH]c3ccc(Br)cc23)C1)N1CCN(C2CCC2)CC1` [Compound 22, 6-Bromo-2-[2-(4-cyclobutylpiperazin-1-yl)-2-oxoethyl]-2,3,4,9-tetrahydro-1H-beta-carboline] it was < 1000 nM; in that of `Cn1c2c(c3cc(F)ccc31)CCN(CC(=O)N1CCN(C3CCC3)CC1)C2` [Compound 23, 2-[2-(4-Cyclobutylpiperazin-1-yl)-2-oxoethyl]-6-fluoro-9-methyl-2,3,4,9-tetrahydro-1H-beta-carboline], < 1000 nM; in that of `O=C(CN1CCc2c([nH]c3cc(F)ccc23)C1)N1CCN(C2CCC2)CC1` [Compound 24, 2-[2-(4-Cyclobutylpiperazin-1-yl)-2-oxoethyl]-7-fluoro-2,3,4,9-tetrahydro-1H-beta-carboline], < 1000 nM. As to `O=C(CN1CCc2c([nH]c3c(F)cccc23)C1)N1CCN(C2CCC2)CC1` [Compound 25, 2-[2-(4-Cyclobutylpiperazin-1-yl)-2-oxoethyl]-8-fluoro-2,3,4,9-tetrahydro-1H-beta-carboline], the Ki was < 1000 nM. Consider `O=C(CN1CCc2c([nH]c3cccc(F)c23)C1)N1CCN(C2CCC2)CC1` [Compound 26, 2-[2-(4-Cyclobutylpiperazin-1-yl)-2-oxoethyl]-5-fluoro-2,3,4,9-tetrahydro-1H-beta-carboline], for which the Ki is < 1000 nM. For `O=C(CN1CCc2c([nH]c3cc(-c4cncnc4)ccc23)C1)N1CCN(C2CCC2)CC1` [Compound 27, 2-[2-(4-Cyclobutylpiperazin-1-yl)-2-oxoethyl]-7-pyrimidin-5-yl-2,3,4,9-tetrahydro-1H-beta-carboline], the inhibitory constant (Ki) is < 1000 nM. For `CCn1c2c(c3ccccc31)CCN(CC(=O)N1CCN(C3CCC3)CC1)C2` [Compound 28, 2-[2-(4-Cyclobutylpiperazin-1-yl)-2-oxoethyl]-9-ethyl-2,3,4,9-tetrahydro-1H-beta-carboline], the Ki is < 1000 nM.

Consider `CCCn1c2c(c3ccccc31)CCN(CC(=O)N1CCN(C3CCC3)CC1)C2` [Compound 29, 2-[2-(4-Cyclobutylpiperazin-1-yl)-2-oxoethyl]-9-propyl-2,3,4,9-tetrahydro-1H-beta-carboline], for which the inhibitory constant (Ki) was < 1000 nM. As for `CC(C)n1c2c(c3ccccc31)CCN(CC(=O)N1CCN(C3CCC3)CC1)C2` [Compound 30, 2-[2-(4-Cyclobutylpiperazin-1-yl)-2-oxoethyl]-9-isopropyl-2,3,4,9-tetrahydro-1H-beta-carboline], the figure is < 1000 nM; as for `O=C(CN1CCc2c(n(CC(F)(F)F)c3ccccc23)C1)N1CCN(C2CCC2)CC1` [Compound 31, 2-[2-(4-Cyclobutylpiperazin-1-yl)-2-oxoethyl]-9-(2,2,2-trifluoroethyl)-2,3,4,9-tetrahydro-1H-beta-carboline], < 1000 nM; as for `O=C(CN1CCc2c([nH]c3ccccc23)C1)N1CCN2CCCCC2C1` (stereo not drawn) [Compound 32, 2-[2-(Octahydro-2H-pyrido[1,2-a]pyrazin-2-yl)-2-oxoethyl]-2,3,4,9-tetrahydro-1H-beta-carboline], < 1000 nM. In the case of `CC1CCCC2CN(C(=O)CN3CCc4c([nH]c5ccccc45)C3)CCN12` (stereo not drawn) [Compound 33, 2-[2-(6-Methyloctahydro-2H-pyrido[1,2-a]pyrazin-2-yl)-2-oxoethyl]-2,3,4,9-tetrahydro-1571H-beta-carboline] it was < 1000 nM.

As a reminder, the Ki is a dissociation constant, usually derived from enzyme kinetics or from competition with a known ligand.
